Measured values: PubChem BioAssay (NCI)
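48-hour exposure; five concentrations; linearly interpolated endpoints. GI50 marks 50% less growth. TGI is the concentration that stops growth completely.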

Key:
Experiment in all cases: growth of human tumour cells (NCI), 48 h
A498 renal = test system: A498 renal
LOX IMVI melanoma = test system: LOX IMVI melanoma
K-562 leukemia = test system: K-562 leukemia
HCC-2998 colon = test system: HCC-2998 colon
SK-MEL-2 melanoma = test system: SK-MEL-2 melanoma
SK-OV-3 ovarian = test system: SK-OV-3 ovarian
786-0 renal = test system: 786-0 renal
SK-MEL-28 melanoma = test system: SK-MEL-28 melanoma
UO-31 renal = test system: UO-31 renal
SNB-19 CNS = test system: SNB-19 CNS
NCI-H226 lung = test system: NCI-H226 lung
HT29 colon = test system: HT29 colon
MALME-3M melanoma = test system: MALME-3M melanoma
HCT-15 colon = test system: HCT-15 colon
SF-539 CNS = test system: SF-539 CNS
ACHN renal = test system: ACHN renal
UACC-257 melanoma = test system: UACC-257 melanoma
HOP-62 NSCLC = test system: HOP-62 NSCLC
SW-620 colon = test system: SW-620 colon
MOLT-4 leukemia = test system: MOLT-4 leukemia
U251 CNS = test system: U251 CNS
MCF7 breast = test system: MCF7 breast
OVCAR-5 ovarian = test system: OVCAR-5 ovarian
M14 melanoma = test system: M14 melanoma
NCI-H23 lung = test system: NCI-H23 lung
RPMI-8226 leukemia = test system: RPMI-8226 leukemia
MDA-MB-435 = test system: MDA-MB-435
CCRF-CEM leukemia = test system: CCRF-CEM leukemia
KM12 colon = test system: KM12 colon
OVCAR-4 ovarian = test system: OVCAR-4 ovarian
RXF 393 renal = test system: RXF 393 renal
HL-60(TB) leukemia = test system: HL-60(TB) leukemia
OVCAR-8 ovarian = test system: OVCAR-8 ovarian
CAKI-1 renal = test system: CAKI-1 renal
EKVX NSCLC = test system: EKVX NSCLC
UACC-62 melanoma = test system: UACC-62 melanoma
HS 578T breast = test system: HS 578T breast
NCI/ADR-RES ovarian = test system: NCI/ADR-RES ovarian
NCI-H522 lung = test system: NCI-H522 lung
MDA-MB-231 breast = test system: MDA-MB-231 breast
SK-MEL-5 melanoma = test system: SK-MEL-5 melanoma
BT-549 breast = test system: BT-549 breast
SF-268 CNS = test system: SF-268 CNS
COLO 205 colon = test system: COLO 205 colon
IGROV1 ovarian = test system: IGROV1 ovarian
HOP-92 NSCLC = test system: HOP-92 NSCLC
HCT-116 colon = test system: HCT-116 colon
NCI-H460 lung = test system: NCI-H460 lung
PC-3 prostate = test system: PC-3 prostate
SF-295 CNS = test system: SF-295 CNS
SNB-75 CNS = test system: SNB-75 CNS
SN12C renal = test system: SN12C renal
TK-10 renal = test system: TK-10 renal
DU-145 prostate = test system: DU-145 prostate
T-47D breast = test system: T-47D breast

`C#Cc1nc(C(=O)NCCCCCCC(=O)NO)cs1` showed a GI50 (A498 renal) of 528 nM, a TGI (A498 renal) of 1780 nM and a GI50 (LOX IMVI melanoma) of less than 14.9 nM. For the same compound, the TGI (LOX IMVI melanoma) was 53 nM, the GI50 (K-562 leukemia) was 639 nM and the TGI (K-562 leukemia) was greater than 100000 nM. The GI50 (HCC-2998 colon) was 1710 nM, the TGI (HCC-2998 colon) was 4430 nM and the GI50 (SK-MEL-2 melanoma) was 1250 nM. The TGI (SK-MEL-2 melanoma) was 3540 nM, the GI50 (SK-OV-3 ovarian) was 1470 nM and the TGI (SK-OV-3 ovarian) was 4010 nM. The GI50 (786-0 renal) was 294 nM, the TGI (786-0 renal) was 838 nM and the GI50 (SK-MEL-28 melanoma) was 1210 nM. The TGI (SK-MEL-28 melanoma) was 5100 nM, the GI50 (UO-31 renal) was 174 nM and the TGI (UO-31 renal) was 332 nM. It also gave a GI50 (SNB-19 CNS) of 2210 nM, a TGI (SNB-19 CNS) of 10000 nM and a GI50 (NCI-H226 lung) of 1740 nM. The TGI (NCI-H226 lung) was 6490 nM, the GI50 (HT29 colon) was 782 nM and the TGI (HT29 colon) was 2440 nM. It also gave a GI50 (MALME-3M melanoma) of 314 nM, a TGI (MALME-3M melanoma) of 1610 nM and a GI50 (HCT-15 colon) of 1470 nM. For the same compound, the TGI (HCT-15 colon) was 3840 nM, the GI50 (SF-539 CNS) was 794 nM and the TGI (SF-539 CNS) was 2240 nM. For the same compound, the GI50 (ACHN renal) was 897 nM, the TGI (ACHN renal) was 2190 nM and the GI50 (UACC-257 melanoma) was 393 nM. The TGI (UACC-257 melanoma) was 2840 nM, the GI50 (HOP-62 NSCLC) was 1120 nM and the TGI (HOP-62 NSCLC) was 3070 nM. The GI50 (SW-620 colon) was 346 nM, the TGI (SW-620 colon) was 1820 nM and the GI50 (MOLT-4 leukemia) was 294 nM. It also gave a TGI (MOLT-4 leukemia) of 1200 nM, a GI50 (U251 CNS) of 1120 nM and a TGI (U251 CNS) of 2390 nM. The GI50 (MCF7 breast) was 939 nM, the TGI (MCF7 breast) was 7250 nM and the GI50 (OVCAR-5 ovarian) was 1030 nM. For the same compound, the TGI (OVCAR-5 ovarian) was 3580 nM, the GI50 (M14 melanoma) was 1220 nM and the TGI (M14 melanoma) was 4030 nM. It also gave a GI50 (NCI-H23 lung) of 780 nM, a TGI (NCI-H23 lung) of 2220 nM and a GI50 (RPMI-8226 leukemia) of 312 nM. For the same compound, the TGI (RPMI-8226 leukemia) was 1550 nM, the GI50 (MDA-MB-435) was 692 nM and the TGI (MDA-MB-435) was 3450 nM. The GI50 (CCRF-CEM leukemia) was 284 nM, the TGI (CCRF-CEM leukemia) was 994 nM and the GI50 (KM12 colon) was 1390 nM. For the same compound, the TGI (KM12 colon) was 3600 nM, the GI50 (OVCAR-4 ovarian) was 1800 nM and the TGI (OVCAR-4 ovarian) was 5120 nM. The GI50 (RXF 393 renal) was 392 nM, the TGI (RXF 393 renal) was 1390 nM and the GI50 (HL-60(TB) leukemia) was 314 nM. It also gave a TGI (HL-60(TB) leukemia) of 805 nM, a GI50 (OVCAR-8 ovarian) of 405 nM and a TGI (OVCAR-8 ovarian) of 2110 nM. It also gave a GI50 (CAKI-1 renal) of 997 nM, a TGI (CAKI-1 renal) of 2310 nM and a GI50 (EKVX NSCLC) of 1550 nM. It also gave a TGI (EKVX NSCLC) of 3190 nM, a GI50 (UACC-62 melanoma) of 433 nM and a TGI (UACC-62 melanoma) of 2050 nM. For the same compound, the GI50 (HS 578T breast) was 718 nM, the TGI (HS 578T breast) was 4050 nM and the GI50 (NCI/ADR-RES ovarian) was 335 nM. It also gave a TGI (NCI/ADR-RES ovarian) greater than 100000 nM, a GI50 (NCI-H522 lung) of 168 nM and a TGI (NCI-H522 lung) of 353 nM. It also gave a GI50 (MDA-MB-231 breast) of 318 nM, a TGI (MDA-MB-231 breast) of 1100 nM and a GI50 (SK-MEL-5 melanoma) of 642 nM. For the same compound, the TGI (SK-MEL-5 melanoma) was 2180 nM, the GI50 (BT-549 breast) was 1470 nM and the TGI (BT-549 breast) was 2850 nM. The GI50 (SF-268 CNS) was 1530 nM, the TGI (SF-268 CNS) was 3440 nM and the GI50 (COLO 205 colon) was 691 nM. For the same compound, the TGI (COLO 205 colon) was 2000 nM, the GI50 (IGROV1 ovarian) was 572 nM and the TGI (IGROV1 ovarian) was 2150 nM. It also gave a GI50 (HOP-92 NSCLC) of 571 nM, a TGI (HOP-92 NSCLC) of 1810 nM and a GI50 (HCT-116 colon) of 339 nM. The TGI (HCT-116 colon) was 1560 nM, the GI50 (NCI-H460 lung) was 587 nM and the TGI (NCI-H460 lung) was 7250 nM. For the same compound, the GI50 (PC-3 prostate) was 1830 nM, the TGI (PC-3 prostate) was 10100 nM and the GI50 (SF-295 CNS) was 983 nM. The TGI (SF-295 CNS) was 2420 nM, the GI50 (SNB-75 CNS) was 714 nM and the TGI (SNB-75 CNS) was 3340 nM. The GI50 (SN12C renal) was 1620 nM, the TGI (SN12C renal) was 5250 nM and the GI50 (TK-10 renal) was 263 nM. It also gave a TGI (TK-10 renal) of 1530 nM, a GI50 (DU-145 prostate) of 367 nM and a TGI (DU-145 prostate) of 1440 nM. It also gave a GI50 (T-47D breast) of 288 nM and a TGI (T-47D breast) of 1540 nM.
